Results from ChEMBL document CHEMBL4725449, “Brain Penetrable Inhibitors of Ceramide Galactosyltransferase for the Treatment of Lysosomal Storage Disorders” (ACS Med Chem Lett, 2020).

Columns and labels:
[1] = (§1) In vivo inhibition of SFT de novo synthesis in PN14 to PN21 days C57BL/6 mouse brain assessed as reduction in [13C] galactose incorporation into SFT at 30 mg/kg, po bid for 2 days and single dose at day 3 treated 1 hr prior to intraperitoneal injection of [13C] galactose measured after 5 hrs of last dose relative to control; format: functional; settings: C57BL/6, 72 h, time 3 day
[2] = biological target: T1, UDP-glucuronosyltransferase 2B7 (Homo sapiens, UniProt P16662); assay: Inhibition of UGT2B7 (unknown origin); format: ADME
T1 sequence (P16662 whole entry): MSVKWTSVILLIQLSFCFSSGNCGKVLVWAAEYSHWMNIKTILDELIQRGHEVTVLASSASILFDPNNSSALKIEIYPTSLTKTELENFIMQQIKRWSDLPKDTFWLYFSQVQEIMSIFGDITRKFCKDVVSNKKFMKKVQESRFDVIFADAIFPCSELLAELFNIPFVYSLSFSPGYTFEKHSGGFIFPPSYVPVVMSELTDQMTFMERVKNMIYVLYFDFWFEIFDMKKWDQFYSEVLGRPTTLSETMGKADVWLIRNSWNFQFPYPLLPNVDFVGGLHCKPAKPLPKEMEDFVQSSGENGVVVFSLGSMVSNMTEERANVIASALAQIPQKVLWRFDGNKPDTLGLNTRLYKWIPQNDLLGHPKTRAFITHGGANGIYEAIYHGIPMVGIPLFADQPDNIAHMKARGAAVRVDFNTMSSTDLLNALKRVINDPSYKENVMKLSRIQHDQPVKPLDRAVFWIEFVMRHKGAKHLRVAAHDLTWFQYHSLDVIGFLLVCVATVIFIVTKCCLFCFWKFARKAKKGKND

[3] = Cmax in C57BL/6 mouse at 3 mg/kg, po; format: ADME, organism-based; design: route oral, dose 3 mg/kg; settings: in vivo
[4] = Ratio of drug concentration in brain to plasma in C57BL/6 mouse measured at 1 hr; format: ADME, organism-based; settings: read-out: BPR
[5] = Tmax in Beagle dog at 3 mg/kg, po; format: ADME, organism-based, Canis lupus familiaris; settings: in vivo
[6] = AUC (0 to last) in Beagle dog at 3 mg/kg, po; format: ADME, organism-based, Canis lupus familiaris; design: time 0 - last, route oral, dose 3 mg/kg; settings: in vivo
[7] = Thermodynamic solubility of the compound […] at pH 7.4; format: physicochemical; settings: read-out: Therm_solubility
[8] = biological target: T2, UDP-glucuronosyltransferase 1A6 (Homo sapiens, UniProt P19224); assay: Inhibition of UGT1A6 (unknown origin); format: ADME
T2 sequence (P19224 whole entry): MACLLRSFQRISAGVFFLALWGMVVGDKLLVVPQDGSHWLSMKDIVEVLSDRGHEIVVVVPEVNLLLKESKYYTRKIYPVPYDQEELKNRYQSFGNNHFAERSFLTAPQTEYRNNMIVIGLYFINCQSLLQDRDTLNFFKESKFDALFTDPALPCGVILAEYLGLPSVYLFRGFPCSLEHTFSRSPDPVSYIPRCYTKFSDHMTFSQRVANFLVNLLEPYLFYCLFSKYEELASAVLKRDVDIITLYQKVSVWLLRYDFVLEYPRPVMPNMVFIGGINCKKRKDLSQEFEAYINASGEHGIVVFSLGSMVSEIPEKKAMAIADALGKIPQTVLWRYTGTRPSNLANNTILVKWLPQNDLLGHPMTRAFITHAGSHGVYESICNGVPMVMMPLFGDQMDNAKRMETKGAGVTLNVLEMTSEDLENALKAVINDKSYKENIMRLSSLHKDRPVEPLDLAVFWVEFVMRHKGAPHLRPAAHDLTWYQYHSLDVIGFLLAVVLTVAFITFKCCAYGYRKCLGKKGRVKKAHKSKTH

[9] = Intrinsic clearance in human liver microsomes; format: ADME, Microsome; settings: read-out: CLH
[10] = as §1, with “10” for “30”; format: functional; settings: C57BL/6, 72 h, time 3 day
[11] = Half life in Sprague-Dawley rat at 1 mg/kg, iv; format: ADME, organism-based; settings: in vivo
[12] = (§2) In vivo inhibition of SFT de novo synthesis in adult C57BL/6 mouse kidney assessed as reduction in [13C] galactose incorporation into SFT at 3 mg/kg, po via gavage treated with compound for 1 hr prior to intraperitoneal injection of [13C] galactose measured after 5 hrs of compound administration relative to control; format: functional
[13] = AUC (0 to last) in Sprague-Dawley rat at 3 mg/kg, po; format: ADME, organism-based; design: time 0 - last, route oral, dose 3 mg/kg; settings: in vivo
[14] = Half life in Beagle dog at 1 mg/kg, iv; format: ADME, organism-based, Canis lupus familiaris; settings: in vivo
[15] = as §2, with “of GalCer” for “of SFT”, “into GalCer” for “into SFT”, “at 30” for “at 3”; format: functional
Mus musculus = assay: (§3) In vivo inhibition of SFT de novo synthesis in po dosed adult C57BL/6 mouse kidney assessed as reduction in [13C] galactose incorporation into SFT treated with compound for 1 hr prior to intraperitoneal injection of [13C] galactose measured after 5 hrs of compound administration; format: functional
[16] = as §3; format: functional

IC50 [2]: > 10 µM
Cmax [3]: 306 ng/mL
Kp at 1 h [4]: 0.46
Tmax [5]: 1.33 h
AUC(0-t) [6]: 4190 ng·h/mL
solubility thermodynamic [7]: < 0.5 µM
IC50 [8]: > 10 µM
microsomal CLint [9]: 73 µL/min/mg
half-life [11]: 4.3 h
AUC(0-t) [13]: 3060 ng·h/mL
half-life [14]: 13.6 h
Structure (SMILES): CNC(=O)c1csc2c(C(F)(F)F)cc(N3CCC(OC(=O)N[C@@H](C)COC(F)(F)F)CC3)nc12
inhibition in vivo at 30 mg/kg [1]: 98%
inhibition in vivo at 10 mg/kg [10]: 97%
inhibition in vivo at 3 mg/kg [12]: 85%
inhibition in vivo at 30 mg/kg [15]: 90%
inhibition (Mus musculus): Dose-dependent effect
ED50 [16]: 1 mg/kg
